From patent publication US7598255B2 (Janssen Pharmaceutica NV, priority 2005, dated 2009) come the findings set out here.

Experiment [1] addresses T1, human recombinant 5-HT2C receptor (Homo sapiens, UniProt P28335).
T1 sequence (P28335 33-458): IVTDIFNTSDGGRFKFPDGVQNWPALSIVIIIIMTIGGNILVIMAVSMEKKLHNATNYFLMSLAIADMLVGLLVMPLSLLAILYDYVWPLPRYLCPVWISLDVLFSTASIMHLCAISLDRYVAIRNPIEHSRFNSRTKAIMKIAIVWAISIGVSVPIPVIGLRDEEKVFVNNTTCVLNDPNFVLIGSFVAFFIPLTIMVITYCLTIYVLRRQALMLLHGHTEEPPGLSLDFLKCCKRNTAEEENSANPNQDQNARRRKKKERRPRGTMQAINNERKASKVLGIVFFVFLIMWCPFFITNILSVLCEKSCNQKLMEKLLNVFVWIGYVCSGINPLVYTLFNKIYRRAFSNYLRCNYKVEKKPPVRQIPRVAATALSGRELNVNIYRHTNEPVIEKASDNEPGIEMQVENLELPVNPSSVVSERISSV
Put plainly: Affinity for 5HT2 receptor binding sites, h5-HT2C, [3H]mesulergine. As to conditions: CHO h5-HT2C membranes.

A further experiment deals with rat 5-HT7a receptor (Rattus norvegicus, UniProt P32305). Put plainly: Affinity for 5-HT7 receptor binding sites, radioligand binding with [3H]5-CT. The settings on record: membranes of HEK-293 cells with rat 5-HT7a, 1 nM [3H]5-CT. The protocol:
The affinity of the compounds described in this invention for the 5-HT7 receptor binding site was evaluated by single competition radioligand binding assay. The assay was performed on membranes prepared from HEK-293 cells that had been subjected to stable transfection with the rat 5-HT7a receptor (GB: NM022938). Cells were scraped from the culture plates, suspended in Tris-HCl 50 mM pH 7.5 and collected through centrifugation (1000 rpm for 5 min). The cell pellets were homogenized (Polytron, 15 s, setting 5) in 50 mM Tris-HCl (pH 7.5), 5 mM EDTA. Following centrifugation (15,000 rpm for 25 min), membranes (135 μg protein/mL) were resuspended in the same buffer and incubated for 60 min at RT with 1 nM [^3H]5-CT in the presence of increasing concentration of test compounds. Nonspecific binding was defined in the presence of 10 μM 5-HT. Incubation was stopped by rapid filtration using the cell harvester (Packard). Radioactivity was counted in a TopCount-NXT (Packard). Experiments were conducted in triplicate.

Another experiment deals with 5-HT2B receptor (Homo sapiens, UniProt P41595). In words: Affinity for 5HT2 receptor binding sites, h5-HT2B, [3H]mesulergine. The settings on record: CHO h5-HT2B membranes.
Sequence of 5-HT2B receptor (P41595 whole entry): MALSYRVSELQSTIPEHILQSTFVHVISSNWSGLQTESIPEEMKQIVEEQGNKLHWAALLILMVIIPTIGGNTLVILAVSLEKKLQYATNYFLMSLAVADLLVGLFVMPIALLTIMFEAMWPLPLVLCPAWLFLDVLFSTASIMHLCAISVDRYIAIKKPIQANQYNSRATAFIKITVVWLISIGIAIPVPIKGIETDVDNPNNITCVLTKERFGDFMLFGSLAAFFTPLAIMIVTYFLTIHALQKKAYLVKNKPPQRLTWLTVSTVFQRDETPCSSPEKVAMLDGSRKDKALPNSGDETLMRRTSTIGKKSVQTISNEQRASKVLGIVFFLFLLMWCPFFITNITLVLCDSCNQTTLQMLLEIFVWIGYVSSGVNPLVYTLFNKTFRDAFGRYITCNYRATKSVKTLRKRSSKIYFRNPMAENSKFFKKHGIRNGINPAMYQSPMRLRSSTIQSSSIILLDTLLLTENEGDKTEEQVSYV
In the next experiment the target is 5-HT2A receptor (Homo sapiens, UniProt P28223). In words: Affinity for 5-HT2A receptor binding sites, radioligand binding with [3H]ketanserin. The settings on record: read-out: Ki 5-HT2A, rat cortex membranes (assay 2) or NIH3T3 h5-HT2A membranes (assay 3), table does not say which.

Counter-ions that a name gives are not always drawn. Some results are limits rather than exact numbers.

Sequence of rat 5-HT7a receptor (P32305 whole entry): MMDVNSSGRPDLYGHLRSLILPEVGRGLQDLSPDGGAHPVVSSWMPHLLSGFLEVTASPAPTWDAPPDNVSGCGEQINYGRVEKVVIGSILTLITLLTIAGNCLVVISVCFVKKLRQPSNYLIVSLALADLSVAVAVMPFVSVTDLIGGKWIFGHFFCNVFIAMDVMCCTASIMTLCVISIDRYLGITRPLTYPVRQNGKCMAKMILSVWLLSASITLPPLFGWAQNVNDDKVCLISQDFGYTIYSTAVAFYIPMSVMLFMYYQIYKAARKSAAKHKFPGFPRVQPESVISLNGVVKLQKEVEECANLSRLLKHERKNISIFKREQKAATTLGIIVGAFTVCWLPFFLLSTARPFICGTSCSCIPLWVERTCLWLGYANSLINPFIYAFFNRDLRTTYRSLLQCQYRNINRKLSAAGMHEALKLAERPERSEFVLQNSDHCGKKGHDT
Procedure for 5-HT2B receptor: Sigmoidal inhibition curves were generated and fitted by nonlinear regression analysis (GraphPad Prism).
Receptor binding was performed using the human recombinant 5-HT2A (GB: X57830), 5-HT2B (GB: Z36748) and 5-HT2C (GB: M81778) receptors. The affinity of the compounds for the 3 different human 5-HT2 receptor subtypes was evaluated by competitive radioligand binding assays using [^3H]ketanserin (h5-HT2A) or [^3H]mesulergine (h5-HT2B and h5-HT2C). The assays were performed on membranes prepared from NIH3T3 stably transfected with h5-HT2A or CHO stably transfected with h5-HT2B and h5-HT2C.

Consider `CC(C)(C)c1nc2c(c(-c3ccc(F)cc3)n1)CNCC2` [Example 1, 2-tert-Butyl-4-(4-fluoro-phenyl)-5,6,7,8-tetrahydro-pyrido[4,3-d]pyrimidine], for which the Ki stood at 90 nM in experiment [1], 0.54 µM at rat 5-HT7a receptor, 70 nM on 5-HT2B receptor and 4 nM at 5-HT2A receptor.

As for `Fc1ccc(-c2nc(Cc3ccccc3)nc3c2CNCC3)cc1` [Example 2, 2-Benzyl-4-(4-fluoro-phenyl)-5,6,7,8-tetrahydro-pyrido[4,3-d]pyrimidine], the inhibition constant Ki in experiment [1] is 510 nM; at rat 5-HT7a receptor, above 10 µM; at 5-HT2B receptor, 5000 nM; on 5-HT2A receptor it was 20 nM.

Regarding `CCC(C)c1nc2c(c(-c3ccc(C)cc3)n1)CNCC2` (stereo not drawn) [Example 4, 2-sec-Butyl-4-p-tolyl-5,6,7,8-tetrahydro-pyrido[4,3-d]pyrimidine hydrochloride], the Ki in experiment [1] was 200 nM; on rat 5-HT7a receptor, above 10 µM; at 5-HT2B receptor, 250 nM; on 5-HT2A receptor, 20 nM.

As to `Fc1ccc(-c2nc(C3CCC3)nc3c2CNCC3)cc1` [Example 5, 2-Cyclobutyl-4-(4-fluoro-phenyl)-5,6,7,8-tetrahydro-pyrido[4,3-d]pyrimidine hydrochloride], the Ki in experiment [1] was 250 nM; on rat 5-HT7a receptor, above 10 µM; at 5-HT2B receptor, 350 nM; on 5-HT2A receptor, 13 nM.

Regarding `Cc1ccc(-c2nc(C3CCC3)nc3c2CNCC3)cc1` [Example 6, 2-Cyclobutyl-4-p-tolyl-5,6,7,8-tetrahydro-pyrido[4,3-d]pyrimidine], the inhibition constant (Ki) in experiment [1] was 300 nM; at rat 5-HT7a receptor it was above 10 µM; at 5-HT2B receptor it was 200 nM; on 5-HT2A receptor, 50 nM.

`Fc1ccc(-c2nc(C3CC3)nc3c2CNCC3)cc1` [Example 7, 2-Cyclopropyl-4-(4-fluoro-phenyl)-5,6,7,8-tetrahydro-pyrido[4,3-d]pyrimidine]: the values for the Ki (in experiment [1]; at rat 5-HT7a receptor; at 5-HT2A receptor) were 900 nM, above 10 µM and 25 nM, respectively.

Regarding `FC(F)(F)c1ccc(-c2nc(Cc3ccccc3)nc3c2CNCC3)cc1` [Example 9, 2-Benzyl-4-(4-trifluoromethyl-phenyl)-5,6,7,8-tetrahydro-pyrido[4,3-d]pyrimidine], the inhibition constant Ki in experiment [1] is 7500 nM; on rat 5-HT7a receptor, 5 µM; at 5-HT2B receptor, above 10000 nM; at 5-HT2A receptor, 1350 nM.

On to `Fc1ccc(-c2nc(Cc3ccccc3)nc3c2CNCC3)cc1F` [Example 10, 2-Benzyl-4-(3,4-difluoro-phenyl)-5,6,7,8-tetrahydro-pyrido[4,3-d]pyrimidine], for which the Ki in experiment [1] was 5000 nM; on rat 5-HT7a receptor, above 10 µM; on 5-HT2B receptor it was above 10000 nM; at 5-HT2A receptor it was 200 nM.

In the case of `c1ccc(Cc2nc3c(c(-c4ccccc4)n2)CNCC3)cc1` [Example 11, 2-Benzyl-4-phenyl-5,6,7,8-tetrahydro-pyrido[4,3-d]pyrimidine], the inhibition constant Ki in experiment [1] is 2000 nM; at rat 5-HT7a receptor, above 10 µM; at 5-HT2B receptor it was above 10000 nM; at 5-HT2A receptor, 100 nM.

Take `Fc1cccc(-c2nc(Cc3ccccc3)nc3c2CNCC3)c1` [Example 12, 2-Benzyl-4-(3-fluoro-phenyl)-5,6,7,8-tetrahydro-pyrido[4,3-d]pyrimidine]: the inhibition constant Ki was 5000 nM in experiment [1], above 10 µM at rat 5-HT7a receptor, above 10000 nM on 5-HT2B receptor and 300 nM at 5-HT2A receptor.

For the molecule `CN1CCc2nc(Cc3ccc(F)cc3)nc(-c3ccc(F)cc3)c2C1` [Example 14, 2-(4-Fluoro-benzyl)-4-(4-fluoro-phenyl)-6-methyl-5,6,7,8-tetrahydro-pyrido[4,3-d]pyrimidine], the Ki is 4000 nM in experiment [1], above 10 µM at rat 5-HT7a receptor, 4000 nM at 5-HT2B receptor and 30 nM at 5-HT2A receptor.

For the molecule `CN1CCc2nc(Cc3ccc(F)cc3)nc(-c3ccc(C#N)cc3)c2C1` [Example 15, 4-[2-(4-Fluoro-benzyl)-6-methyl-5,6,7,8-tetrahydro-pyrido[4,3-d]pyrimidin-4-yl]-benzonitrile], the Ki is above 10000 nM in experiment [1], above 10 µM at rat 5-HT7a receptor, above 10000 nM at 5-HT2B receptor and 1000 nM at 5-HT2A receptor.

Regarding `N#Cc1ccc(-c2nc(Cc3ccc(F)cc3)nc3c2CNCC3)cc1` [Example 16, 4-[2-(4-Fluoro-benzyl)-5,6,7,8-tetrahydro-pyrido[4,3-d]pyrimidin-4-yl]-benzonitrile], the Ki in experiment [1] was above 10000 nM; at rat 5-HT7a receptor it was above 10 µM; on 5-HT2B receptor, above 10000 nM; at 5-HT2A receptor, 2000 nM.

With `COc1ccc(-c2nc(C3CCCC3)nc3c2CNCC3)cc1` [Example 19, 2-Cyclopentyl-4-(4-methoxy-phenyl)-5,6,7,8-tetrahydro-pyrido[4,3-d]pyrimidine], the Ki in experiment [1] is 200 nM; on rat 5-HT7a receptor, above 10 µM; at 5-HT2B receptor, 140 nM; at 5-HT2A receptor, 100 nM.

In the case of `N#Cc1ccc(-c2nc(C3CCCC3)nc3c2CNCC3)cc1` [Example 20, 4-(2-Cyclopentyl-5,6,7,8-tetrahydro-pyrido[4,3-d]pyrimidin-4-yl)-benzonitrile], the inhibitory constant (Ki) in experiment [1] is above 10000 nM; at rat 5-HT7a receptor it was above 10 µM; at 5-HT2B receptor, 1200 nM; on 5-HT2A receptor, 700 nM.

Turning to `CC(C)c1nc2c(c(-c3ccc(F)cc3)n1)CN(C)CC2` [Example 22, 4-(4-Fluoro-phenyl)-2-isopropyl-6-methyl-5,6,7,8-tetrahydro-pyrido[4,3-d]pyrimidine], the inhibition constant (Ki) in experiment [1] was 1300 nM; at rat 5-HT7a receptor, above 10 µM; on 5-HT2B receptor it was 500 nM; at 5-HT2A receptor, 32 nM.

Turning to `CC(C)c1nc2c(c(-c3ccc(Cl)c(Cl)c3)n1)CNCC2` [Example 23, 4-(3,4-Dichloro-phenyl)-2-isopropyl-5,6,7,8-tetrahydro-pyrido[4,3-d]pyrimidine hydrochloride], the inhibition constant Ki in experiment [1] is above 10000 nM; on rat 5-HT7a receptor it was above 10 µM; on 5-HT2B receptor, above 10000 nM; on 5-HT2A receptor, 500 nM.

Turning to `CC(C)c1nc2c(c(-c3ccc(F)c(F)c3)n1)CNCC2` [Example 24, 4-(3,4-Difluoro-phenyl)-2-isopropyl-5,6,7,8-tetrahydro-pyrido[4,3-d]pyrimidine hydrochloride], the Ki is above 10000 nM in experiment [1], above 10 µM on rat 5-HT7a receptor, above 10000 nM at 5-HT2B receptor and 240 nM at 5-HT2A receptor.

Take `CC(C)c1nc2c(c(-c3cccc(F)c3)n1)CNCC2` [Example 25, 4-(3-Fluoro-phenyl)-2-isopropyl-5,6,7,8-tetrahydro-pyrido[4,3-d]pyrimidine]: the inhibition constant (Ki) in experiment [1] was above 10000 nM; on rat 5-HT7a receptor, above 10 µM; on 5-HT2B receptor, above 10000 nM; at 5-HT2A receptor it was 300 nM.

For the molecule `CC(C)Cc1nc2c(c(-c3ccc(F)cc3)n1)CNCC2` [Example 37, 4-(4-Fluoro-phenyl)-2-isobutyl-5,6,7,8-tetrahydro-pyrido[4,3-d]pyrimidine], the Ki in experiment [1] was 1000 nM; on rat 5-HT7a receptor, above 10 µM; at 5-HT2B receptor, 400 nM.

Take `CNCCc1cc(-c2ccc(F)cc2)nc(C(C)(C)C)n1` [Example 166, {2-[2-tert-Butyl-6-(4-fluoro-phenyl)-pyrimidin-4-yl]-ethyl}-methyl-amine]: the inhibition constant Ki in experiment [1] turned out to be 170 nM; at 5-HT2B receptor, 18 nM; at 5-HT2A receptor, 11 nM.

The Ki is the dissociation constant of the complex between target and ligand, obtained from inhibition or displacement.
